Values quoted from earlier work as cited in patent publication US6528539B1, “Stable formulation containing fumagillin” (Sanofi-Synthelabo, priority 1999, dated 2003).

Conditions: fumagillin as such; must be stored at −80° C.; literature studies named in b6

stability at ambient temperature: highly unstable at ambient temperature
SMILES: COC1C(OC(=O)/C=C/C=C/C=C/C=C/C(=O)O)CCC2(CO2)C1[C@@]1(C)O[C@@H]1CC=C(C)C (stereo in doubt) [Fumagillin, 2,4,6,8-decatetraenedioic acid mono[4-(1,2-epoxy-1,5-dimethyl-4-hexenyl)-5-methoxy-1-oxaspiro[2.5]oct-6-yl] ester]
